In brackets after ≈: the same amount, converted by molar mass. Several values for one entry are separate records, joined by “and”; a condition that tells them apart may be missing. Identical values can stand only once.
Legend:
[1] = test system: human glioblastoma cell line SF-268; assay: Proliferation test (cellular dehydrogenase activity), SF-268; format: cell-based
From the text: (§1) The antiproliferative activity of the compounds 1, 2, 4, 6, 7, 9, 10, 11, 12 and 13 according to the invention was investigated in a proliferation test performed on established tumor cell lines (D. A. Scuderio et al. Cancer Res. 1988, 48: 4827-4833).
(§2) The test used determines the cellular dehydrogenase activity and makes it possible to determine cell viability and determine cell number indirectly.
(§3) The cell lines used are the human cervical carcinoma cell line KB/HeLa (ATCC CCL17), the ovarian adenocarcinoma cell line SKOV-3 (ATCC HTB77), the human glioblastoma cell line SF-268 (NCI-503138) and the lung carcinoma cell line NCI-H460 (NCI-503473). In addition, an RKOp27 cell system was used for investigating the cell cycle-specific effect of the substance (M. Schmidt et al. Oncogene 2000, 19(20): 2423-9).

[2] = test system: RKOp27 human colon carcinoma cells; assay: Proliferation test, RKOp27 cell system without p27kiP1 expression; format: cell-based; conditions: RKOp27 without expression of p27kiP1
From the text: as §1, §2, §3
(§4) RKO is a human colon carcinoma line in which expression of the cell cycle inhibitor p27^kiP1 can be induced using the ecdysone expression system and lead to cell cycle arrest specifically in […].
(§5) By contrast, cell cycle-specific substances, such as, for example, tubulin inhibitors, are only cytotoxic when cells are not arrested and the cell cycle is passed through.

[3] = test system: lung carcinoma cell line NCI-H460; assay: Proliferation test (cellular dehydrogenase activity), NCI-H460; format: cell-based; conditions: Homo sapiens
From the text: as §1, §2, §3

[4] = test system: human cervical carcinoma cell line KB/HeLa; assay: Proliferation test (cellular dehydrogenase activity), KB/HeLa; format: cell-based
From the text: as §1, §2, §3

[5] = test system: ovarian adenocarcinoma cell line SKOV-3; assay: Proliferation test (cellular dehydrogenase activity), SK-OV-3; format: cell-based; conditions: Homo sapiens
From the text: as §1, §2, §3

[6] = test system: RKOp27 human colon carcinoma cells, p27kiP1 induced; assay: Proliferation test, RKOp27 cell system with induced p27kiP1 expression; format: cell-based; conditions: RKOp27 with induced expression of p27kiP1, read-out: RKOP27ind EC50
From the text: as §1, §2, §3, §4, §5

[7] = test system: T1, porcine brain tubulin; assay: Inhibition of the polymerization of porcine brain tubulin (turbidimetric); format: biochemical; conditions: porcine brain tubulin with about 15% MAPs, GTP, 37° C.
T1 construct: In addition to tubulin, the protein used comprises about 15% of associated proteins (MAPs)
Method: b) In an in vitro test, the compounds 1, 2, 4 and 7 were tested for inhibition of the polymerization of porcine brain tubulin. In this test, tubulin purified by polymerization and depolymerization cycles is used (Shelanski et al. Proc. Natl. Acad. Sci. U.S.A. 1973, 70, 765-768 modified according to Vater et al. Acta Histochem. Suppl. 1986, 33, 123-129), which is polymerized by addition of GTP and heating to 37° C. In addition to tubulin, the protein used comprises about 15% of associated proteins (MAPs). The measurement values were determined turbidimetrically according to Gaskin et al. J. Mol. Biol. 89 (1974) 737-755.
Table 3 states the EC50 value of the polymerization inhibition.

[8] = test system: doxorubicin-resistant P388 cell line; assay: XTT antiproliferative test, doxorubicin-resistant P388; format: cell-based, murine; conditions: for IC50: Mus musculus, P388, XTT, read-out: P388ADR IC50; for P388ADR IC50: XTT
From the text: (§6) For further characterization, the compounds 6 and 7 according to the invention were investigated with regard to multidrug-resistant (MDR) cell lines as compared with the nonresistant wild-type cell lines.
(§7) The murine P388 cell line (methylcholanthrene-induced lymphoid neoplasm) [R. Supino et al.; Inst. Nazionale per lo Studio e las cura die Tumori; Milan)] and the doxorubicin-resistant P388 cell line (NSC-123127) were also included as test systems.

[9] = test system: bovine tubulin; assay: Inhibition of the polymerization of bovine tubulin (in vitro); format: biochemical; conditions: for Inhibition at 10 μg/ml [%]: tubulin with 30% associated proteins (MAPs), repeat values; for EC50 of polymerization inhibition of tubulin: bovine tubulin with 30% associated proteins (MAPs)
From the text: In this test, tubulin purified by polymerization and depolymerization cycles is used, which is polymerized by addition of GTP and heating.
Table 1 states the %-inhibition values and Table 2 states the EC50 values of polymerization inhibition of tubulin with 30% associated proteins (MAPs).

[10] = test system: murine cell line L1210; assay: XTT antiproliferative test, L1210; format: cell-based; conditions: L1210 wild type; for IC50: Mus musculus, L1210, XTT; for L1210 IC50: XTT
From the text: as §6
(§8) The cell lines which were investigated are the murine cell line L1210 (ATCC CCL219), the acute myeloid leukaemia cell line LT12 (De Vries et al.; University Rotterdam) and the resistant lines L1210/VCR (Asta Medica Laboratory) and LT12/mdr (De Vries et al.; University Rotterdam).

[11] = test system: murine P388 cell line; assay: XTT antiproliferative test, P388; format: cell-based; conditions: P388 wild type; for IC50: Mus musculus, P388, XTT; for P388 IC50: XTT
From the text: as §6, §7

[12] = test system: acute myeloid leukaemia cell line LT12; assay: XTT antiproliferative test, LT12; format: cell-based; conditions: LT12 wild type; for IC50: Rattus norvegicus, LT12, XTT; for LT12 IC50: XTT
From the text: as §6, §8

[13] = test system: resistant line L1210/VCR; assay: XTT antiproliferative test, L1210/VCR; format: cell-based, murine
From the text: as §6, §8

[14] = test system: resistant line LT12/mdr; assay: XTT antiproliferative test, LT12/mdr; format: cell-based
From the text: as §6, §8

[15] = test system: KB/HeLa cells; assay: Cell cycle analysis (G2/M arrest) in KB/HeLa cells; format: cell-based; conditions: Homo sapiens, 24 h, 24 hours at 37° C., 0.1-1000 nM, read-out: EC50 [nM] (50% cells in G2/M)
Method: For the cell cycle analysis, KB/HeLa cells (ATCC CCL17) were treated with different concentrations (0.1-1000 nM) of the test substances at 37° C. for 24 hours.
The percentage of cells arrested in the G2/M phase of the cell cycle after treatment with compounds according to the invention and selected reference substances is shown in Table 9 below. The results were analysed using special analytical software (ModFit™).

melting point [°C] | EC50 [2] [µg/mL] | EC50 [3] [µg/mL] | EC50 [4] [µg/mL] | EC50 [6] [µg/mL] | SMILES | Inhibition at 10 μg/ml [%] [9] | other results
200 to 201 | 0.802 (≈ 2.32 µM) | 0.931 (≈ 2.69 µM) | 0.248 (≈ 0.716 µM) | > 3.16 | COc1csc(C(=O)C=C2c3ccccc3C(=O)c3ccccc32)c1 [Compound 2, 10-[2-(4-methoxy-thiophen-2-yl)-2-oxo-ethylidene]-10H-anthracen-9-one] |  | EC50 [1]: 0.331 µg/mL (≈ 0.956 µM); EC50 [5]: 0.416 µg/mL (≈ 1.2 µM); EC50 of the polymerization inhibition [7]: 2.3 µg/mL
177 to 178 |  |  |  |  | O=C1c2ccccc2C(=CC(=O)N2CCSCC2)c2ccccc21 [Compound 3, 10-(2-oxo-2-thiomorpholin-4-ylethylidene)-10H-anthracen-9-one] |  | 
169 to 172 | 0.108 (≈ 0.315 µM) | 0.203 (≈ 0.593 µM) | 0.181 (≈ 0.529 µM) | > 3.16 | COc1ccc(C(=O)C=C2c3ccccc3C(O)c3ccccc32)cc1 (centres unmarked) [Compound 4, 2-(10-hydroxy-10H-anthracen-9-ylidene)-1-(4-methoxy-phenyl)-ethanone] |  | EC50 [1]: 0.227 µg/mL (≈ 0.663 µM); EC50 [5]: 0.171 µg/mL (≈ 0.499 µM); EC50 of the polymerization inhibition [7]: 1.2 µg/mL
189 to 190 |  |  |  |  | COc1ccc(N2CCN(C(=O)C=C3c4ccccc4C(=O)c4ccccc43)CC2)cc1 [Compound 5, 10-{2-[4-(4-methoxy-phenyl)-piperazin-1-yl]-2-oxo-ethylidene}-10H-anthracen-9-one] |  | 
160 | 0.24 (≈ 0.648 µM) | 0.29 (≈ 0.783 µM) | 0.458 (≈ 1.24 µM) | > 3.16 | COc1ccc(C(=O)C=C2c3ccccc3C(=O)c3ccccc32)cc1OC [Compound 6, 10-[2-(3,4-dimethoxy-phenyl)-2-oxo-ethylidene]-9(10H)-anthracenone] | 68.9% and 86.1% and 99.0% | IC50 [8]: 0.25 µg/mL (≈ 0.675 µM); P388ADR IC50 [8]: 0.49 µg/mL; IC50 [10]: 0.32 µg/mL (≈ 0.864 µM); L1210 IC50 [10]: 0.35 µg/mL; IC50 [11]: 0.35 µg/mL (≈ 0.945 µM); P388 IC50 [11]: 0.39 µg/mL; IC50 [12]: 0.1 µg/mL (≈ 0.27 µM); LT12 IC50 [12]: 0.17 µg/mL
120 to 122 | 0.027 (≈ 0.0793 µM) | 0.025 (≈ 0.0734 µM) | 0.02 (≈ 0.0588 µM) | > 3.16 | COc1ccc(C(=O)C=C2c3ccccc3C(=O)c3ccccc32)cc1 [Compound 7, 10-[2-(4-methoxy-phenyl)-2-oxo-ethylidene]-10H-anthracen-9-one] | 99.1% and 100.0% | IC50 ([13]; Mus musculus, L1210, XTT, read-out: L1210VCR IC50): 0.017 µg/mL (≈ 0.0499 µM); L1210VCR IC50 ([13]; XTT): 0.018 µg/mL; EC50 [1]: 0.02 µg/mL (≈ 0.0588 µM); IC50 [8]: 0.016 µg/mL (≈ 0.047 µM); P388ADR IC50 [8]: 0.018 µg/mL; EC50 of polymerization inhibition of tubulin [9]: 1.38 µg/mL and 1.50 µg/mL; IC50 [10]: 0.016 µg/mL (≈ 0.047 µM); L1210 IC50 [10]: 0.017 µg/mL; IC50 [11]: 0.014 µg/mL (≈ 0.0411 µM); P388 IC50 [11]: 0.015 µg/mL; IC50 [12]: 0.015 µg/mL (≈ 0.0441 µM); LT12 IC50 [12]: 0.019 µg/mL; IC50 ([14]; Rattus norvegicus, LT12, XTT, read-out: LT12mdr IC50): 0.015 µg/mL (≈ 0.0441 µM); LT12mdr IC50 ([14]; XTT): 0.020 µg/mL; EC50 [5]: 0.02 µg/mL (≈ 0.0588 µM); EC50 of the polymerization inhibition [7]: 0.5 µg/mL
176 to 178 |  |  |  |  | COc1ccc(C(=O)C=C2c3ccccc3C(=O)c3ccccc32)c(O)c1OC [Compound 8, 10-[2-(2-hydroxy-3,4-dimethoxy-phenyl)-2-oxo-ethylidene]-10H-anthracen-9-one] |  | 
129 | 0.09 (≈ 0.277 µM) | 0.11 (≈ 0.339 µM) | 0.2 (≈ 0.617 µM) | > 3.16 | Cc1ccc(C(=O)C=C2c3ccccc3C(=O)c3ccccc32)cc1 [Compound 9, 10-(2-oxo-2-p-tolyl-ethylidene)-10H-anthracen-9-one] | 98.3% and 99.8% and 100.0% | EC50 [1]: 0.2 µg/mL (≈ 0.617 µM); EC50 of polymerization inhibition of tubulin [9]: 0.49 µg/mL; EC50 [5]: 0.13 µg/mL (≈ 0.401 µM)
211 to 212 | 1.38 (≈ 4.23 µM) | 1.34 (≈ 4.11 µM) | 2.65 (≈ 8.12 µM) | > 3.16 | O=C(C=C1c2ccccc2C(=O)c2ccccc21)c1ccc(O)cc1 [Compound 10, 10-[2-(4-hydroxy-phenyl)-2-oxo-ethylidene]-10H-anthracen-9-one] | 85.0% and 94.8% and 98.4% and 98.6% | EC50 of polymerization inhibition of tubulin [9]: 4.87 µg/mL
126 |  | 1.05 (≈ 3.32 µM) | 2.65 (≈ 8.38 µM) | > 3.16 | O=C(C=C1c2ccccc2C(=O)c2ccccc21)c1cccs1 [Compound 11, 10-(2-oxo-2-thiophen-2-yl-ethylidene)-10H-anthracen-9-one] |  | 
185 | 0.63 (≈ 1.93 µM) | 0.61 (≈ 1.87 µM) | 1.4 (≈ 4.29 µM) | > 3.16 | O=C(C=C1c2ccccc2C(=O)c2ccccc21)c1cccc(O)c1 [Compound 12, 10-[2-(3-hydroxy-phenyl)-2-oxo-ethylidene]-10H-anthracen-9-one] | 83.1% and 95.0% and 92.7% and 86.9% | EC50 [1]: 2.22 µg/mL (≈ 6.8 µM); EC50 [5]: 3.03 µg/mL (≈ 9.28 µM)
 | 1.1 (≈ 3.23 µM) | 1.16 (≈ 3.41 µM) | 1.89 (≈ 5.55 µM) | > 3.16 | COc1cccc(C(=O)C=C2c3ccccc3C(=O)c3ccccc32)c1 [Compound 13, 10-[2-(3-methoxy-phenyl)-2-oxo-ethylidne]-10H-anthracen-9-one] | 72.6% and 85.9% and 87.3% and 93.7% | 
113 |  |  |  |  | COC(=O)C=C1c2ccccc2C(=O)c2ccccc21 [Compound 15, (10-oxo-10H-anthracen-9-ylidene)-acetic acid methyl ester] |  | 
151 to 152 |  |  |  |  | COc1cc(C(=O)C=C2c3ccccc3C(=O)c3ccccc32)cc(OC)c1OC [Compound 16, 10-[2-oxo-2-(3,4,5-trimethoxy-phenyl)-ethylidene]-10H-anthracen-9-one] | 65.0% and 65.5% and 61.9% | 
180 to 182 |  |  |  |  | O=C(O)C=C1c2ccccc2C(=O)c2ccccc21 [Compound 17, (10-oxo-10H-anthracen-9-ylidene)-acetic acid] |  | 
128 |  |  |  |  | O=C(C=C1c2ccccc2C(=O)c2ccccc21)c1ccccc1 [Compound 18, 10-(2-oxo-2-phenyl-ethylidene)-10H-anthracen-9-one] | 54.9% and 69.9% and 79.8% and 71.0% | 
 |  |  |  |  | CC(=O)O[C@H]1C(=O)[C@@]2(C)[C@H]([C@H](OC(=O)c3ccccc3)[C@]3(O)C[C@H](OC(=O)[C@H](O)[C@@H](NC(=O)c4ccccc4)c4ccccc4)C(C)=C1C3(C)C)[C@]1(OC(C)=O)CO[C@@H]1C[C@@H]2O [Paclitaxel] |  | EC50 [15]: 26.9 nM

From patent US20080051463A1, “ANTHRACENE COMPOUNDS AND THEIR USE FOR TREATING BENIGN AND MALIGNANT TUMOR DISORDERS” (AETERNA ZENTARIS GmbH, priority 2006, published 2008)
